Laboratory results published in patent US20170029823A1, “TRUNCATED TRK B AND TRK C ANTAGONISTS AND USES THEREOF” (priority 2015, published 2017).
Entries after “also recorded” stand apart in the source; their conditions may differ.

How the values were obtained:
[1] = test system: RHOP347S (RHOP) transgenic mouse model of retinitis pigmentosa; test: ONL thickness by FD-OCT after intravitreal injection; format: in vivo; settings: PD98059 intravitreal at post-natal day 17
Description: (§1) Intravitreal injections were performed as follows. Briefly, mice were anesthetized with isoflurane, delivered through a gas anesthetic mask. The drugs were delivered using a Hamilton syringe. Injections were done using a surgical microscope to visualize the Hamilton entry into the vitreous chamber and confirm delivery of the injected solution. After the injection, the syringe was left in place for 30 sec and slowly withdrawn from the eye to prevent reflux. Experimental right eyes were injected with the test agents and control left eyes serve as internal control.
(§2) All intravitreal injections delivered 2 μl of the MAPK/ERK inhibitor PD98059 (10 mM stock) or the selective-TrkC antagonist 3F (1 mM stock). Control eyes were injected with 50% DMSO for PD98059 assays or 5% DMSO for the compound 3F assays. Intravitreal injections in wild-type or RHOP-mice were made at post-natal day 17. Experimental time points to measure ONL thinning were set at post-natal days 18, 22, 24 and 28. The end point for analyzing the effect of the compounds on the expression of p-Erk and p-Akt was at post-natal day 18 (24 hours after intravitreal injection).
A noninvasive prototype spectrometer-based FD-OCT system was used to acquire the retinal images. FD-OCT is a noninvasive method that allows time-kinetic studies in the same animal, with axial resolution in tissue nominally better than 4 μm and repeatability of the measurements from B-scans better than 1 μm. Data acquisition was performed using custom software written in C++ for rapid frame grabbing, processing, and display of two-dimensional images. Manual segmentations were used to measure the thicknesses of the mice retinas. Mice were anesthetized using isoflurane/O2 and placed on a platform, and the head was oriented to an angle at which the eye was properly aligned to the optical beam. The pupils were dilated with a topical solution (atropine sulfate 1%; Alcon, Fort Worth, Tex.). Refraction of light at the cornea was cancelled by placing over the eye a generic artificial tear gel. Alignment of the optical system to the […] retina required a few minutes and was followed by rapid acquisition of data (about 5 s/vol). During retinal scanning, three volumes were acquired in different sectors of the retina containing the ON head as landmark.
After processing, three B-scans were randomly selected from each volume. The retinal thickness measurements were performed with Matlab software using the saved data. In each B-scan, the thickness of the nerve fiber layer (NFL)—ganglion cell layer (GCL)—inner plexiform layer (IPL), hereafter referred to as NGI and outer nuclear layer (ONL) was measured at three adjacent points. […]

[2] = test system: p-Erk and p-Akt; test: p-Erk and p-Akt immunohistochemistry in RHOP retinas after intravitreal injection; format: in vivo, mouse; settings: post-natal day 18, 24 h after intravitreal PD98059, vs vehicle-injected eye
Description: as §1
as §2, with “injection). […]” for “injection).”
For each experimental condition, a minimum of 6 images were acquired from 3 sections cut from different areas of the retina (n=3-4 retinas per group). The area of the profiles of the cells expressing p-Akt and p-Erk was measured using ImageJ software. […]

[3] = test system: TNF-α; test: TNF-α mRNA (PCR) and protein (ELISA) in rMC-1 cells; format: cell-based; settings: NT-3 (10 nM) or LPS (1 μg/ml) for 6 hrs
Text: FIG. 7A-FIG. 7D illustrates development and validation of a TrkC.T1 inhibitor that prevents TrkC.T1-mediated induction of TNF-α FIG. 7A The mRNA levels of TrkC-FL and TrkC.T1 were quantified by PCR, after infection with lentivirus pLKO.Scr (scrambled control) or with pLKO.1 (expressing a unique shRNA (SEQ ID NO: 1) targeting TrkC.T1 mRNA specifically). Results are normalized to reference GAPDH mRNA. Data are expressed as the mean+SEM; n=3 independent experiments each in triplicate. […] FIG. 7B and FIG. 7C In rMC-1 cells the levels of TNF-α mRNA and protein were quantified by PCR or by ELISA after infection with pLKO.1TrkC.T1 or pLKOScr control. NT-3 and LPS treatment induce TNF-α and pLKO.1 prevents it. Data are standardized to untreated control. Average±sem, n=3 independent experiments each in triplicate. FIG. 7D In spinal cord of ALS G93A versus wild type mice the levels of TNF-α mRNA were assessed by quantitative PCR. Results were normalized to GAPDH. Data are expressed as the mean±SEM n=8 independent spinal cords per group. A-F t-test was applied for statistical analysis. * p<0.05, ** p<0.01 versus control. Stars with brackets indicate differences between the indicated groups.
In rMC-1 cells treatment with NT-3 (10 nM) or LPS (1 μg/ml) for 6 hrs increases TNF-α mRNA (FIG. 7B) and protein (FIG. 7C).

[4] = molecular target: T1, TrkC.T1 (Rattus norvegicus, UniProt Q03351); test: p-Erk and p-Akt western blot after NT-3 stimulation in 293-TrkC.T1 cells; format: cell-based; settings: non-infected 293-TrkC.T1 cells, NT-3 4 nM for 10 min
T1 construct: expressed in transfected cells; host or cells: HEK293 (stably transfected subclone 293-TrkC.T1)
Description: (§3) FIG. 15A-FIG. 15D illustrates TrkC.T1 directly activates MAPK/Erk in Müller cells. Representative western blots showing the levels of TrkC-FL (140 KDa), TrkC.T1 (110 kDa), p-Erk 1/2 (44 and 42 KDa) and p-Akt (60 KDa) in HEK293 cell expression system and rMC-1 cells, with or without stimulation of 4 nM NT-3 for 10 min. […] FIG. 15B, FIG. 15D Densitometric quantification of p-Erk and p-Akt signal standardized to untreated controls (arbitrary value of 1). The data represent relative protein levels±SEM. n=3 independent experiments. * p<0.05, ** p<0.01 and ***p<0.001.
(§4) HEK293 cells were transfected with human full-length TrkC cDNA (293-TrkC-FL) or with rat TrkC.T1 cDNA (293-TrkC.T1). The cells are stably transfected subclones that express high levels of TrkC-FL or TrkC.T1 receptors and are respectively grown under drug selection (0.5 mg/ml G418 or 1 mg/ml Puromycin).
(§5) All cells types were serum-starved for 1 hour. […]
(§6) Whole retinas either from culture or freshly dissected were collected and added to 200 μL lysis buffer (20 mM Tris-HCl pH 7.5, 137 mM NaCl, 2 mM EDTA, 1% Nonidet P-40) containing a protease inhibitor cocktail (Roche). […] Protein quantities were assessed using the Bradford assay (BioRad), and 40 μg of total protein was mixed with Laemmli buffer, boiled for 5 minutes and loaded onto 10% gels. […] Blots were scanned and quantified using ImageJ software. […]

[5] = molecular target: T2, TrkC-FL (Homo sapiens, UniProt Q16288); test: p-Erk and p-Akt western blot after NT-3 stimulation in 293-TrkC-FL cells; format: cell-based; settings: NT-3 4 nM for 10 min
T2 construct: transfected with human full-length TrkC cDNA (293-TrkC-FL); expressed in transfected cells; host or cells: HEK293 (stably transfected subclone 293-TrkC-FL)
Description: as §3, §4, §5, §6

[6] = molecular target: T3, endogenous TrkC.T1 in rMC-1 cells (Rattus norvegicus, UniProt Q03351); test: p-Erk and p-Akt western blot after NT-3 stimulation in rMC-1 cells; format: cell-based; settings: rMC-1 infected and rMC-1 wild-type cells, 4 nM NT-3 for 10 min
T3 construct: endogenous TrkC.T1 mRNA in r-MC-1 cells was silenced; endogenous in cells; host or cells: rMC-1 (Müller glial cell line)
Description: as §3
A short hairpin RNA (shRNA) specifically targeting a unique 3′ sequence of the TrkC.T1 mRNA was designed using the DSIR algorithm. The TrkC.T1-targeting shRNA sequence […] (SEQ ID NO: 1), or a scrambled control sequence […] […] TrkC.T1-specific depletion was determined by real-time quantitative PCR and by Western blotting.
as §5, §6

[7] = molecular target: human full-length TrkC expressed on HEK293 cells (293-TrkC-FL) (human) (UniProt Q16288); test: cell-based or functional assay
[8] = molecular target: rat TrkC.T1 expressed on HEK293 cells (293-TrkC.T1) (rat) (UniProt Q03351); test: cell-based or functional assay
rat TrkC.T1 expressed on HEK293 cells (293-TrkC.T1) (rat), sequence (Q03351 32-864): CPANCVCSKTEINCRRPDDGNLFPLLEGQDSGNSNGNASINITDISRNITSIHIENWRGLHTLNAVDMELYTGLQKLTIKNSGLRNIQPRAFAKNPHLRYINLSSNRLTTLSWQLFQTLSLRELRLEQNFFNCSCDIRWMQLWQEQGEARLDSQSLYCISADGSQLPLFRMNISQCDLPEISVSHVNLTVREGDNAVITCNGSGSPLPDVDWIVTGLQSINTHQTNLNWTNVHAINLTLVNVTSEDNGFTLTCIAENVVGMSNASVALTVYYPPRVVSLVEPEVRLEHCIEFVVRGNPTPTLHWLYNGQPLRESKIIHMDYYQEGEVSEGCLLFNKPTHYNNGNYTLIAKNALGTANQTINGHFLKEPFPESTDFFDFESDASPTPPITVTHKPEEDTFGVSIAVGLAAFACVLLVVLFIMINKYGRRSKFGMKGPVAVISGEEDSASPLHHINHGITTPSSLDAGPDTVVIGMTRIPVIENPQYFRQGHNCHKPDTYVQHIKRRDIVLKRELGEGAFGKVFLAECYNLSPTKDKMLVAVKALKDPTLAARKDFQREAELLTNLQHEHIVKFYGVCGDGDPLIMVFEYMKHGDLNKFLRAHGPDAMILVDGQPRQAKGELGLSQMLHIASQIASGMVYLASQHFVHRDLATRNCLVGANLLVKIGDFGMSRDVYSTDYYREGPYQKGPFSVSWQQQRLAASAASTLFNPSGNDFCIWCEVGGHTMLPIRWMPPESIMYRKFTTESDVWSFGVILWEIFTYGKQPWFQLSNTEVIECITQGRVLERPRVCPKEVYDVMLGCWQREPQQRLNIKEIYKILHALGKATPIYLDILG

human full-length TrkC expressed on HEK293 cells (293-TrkC-FL) (human), sequence (Q16288 32-839): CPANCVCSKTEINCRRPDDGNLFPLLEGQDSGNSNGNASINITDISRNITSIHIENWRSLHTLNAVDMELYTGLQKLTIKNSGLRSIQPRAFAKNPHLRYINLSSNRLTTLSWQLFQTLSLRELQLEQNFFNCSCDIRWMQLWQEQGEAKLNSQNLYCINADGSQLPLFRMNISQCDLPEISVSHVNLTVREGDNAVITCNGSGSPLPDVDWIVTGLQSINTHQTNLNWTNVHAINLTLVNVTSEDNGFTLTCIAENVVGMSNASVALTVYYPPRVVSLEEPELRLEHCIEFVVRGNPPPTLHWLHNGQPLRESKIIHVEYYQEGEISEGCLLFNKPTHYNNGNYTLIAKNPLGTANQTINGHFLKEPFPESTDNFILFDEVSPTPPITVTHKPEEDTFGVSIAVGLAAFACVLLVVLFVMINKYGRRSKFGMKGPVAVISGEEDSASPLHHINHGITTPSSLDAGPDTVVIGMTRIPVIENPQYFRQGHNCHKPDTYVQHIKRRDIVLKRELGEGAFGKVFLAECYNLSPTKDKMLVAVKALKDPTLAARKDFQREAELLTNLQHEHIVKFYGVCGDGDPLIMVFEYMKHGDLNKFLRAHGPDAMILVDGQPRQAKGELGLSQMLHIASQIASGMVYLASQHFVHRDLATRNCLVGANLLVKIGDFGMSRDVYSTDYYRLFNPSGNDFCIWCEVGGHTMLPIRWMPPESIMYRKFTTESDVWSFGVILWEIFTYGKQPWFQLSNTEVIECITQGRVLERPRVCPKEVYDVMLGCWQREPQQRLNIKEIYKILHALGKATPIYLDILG
T2 sequence (Q16288 32-839): as above
T3 sequence (Q03351 32-612 isoform Q03351-5 limits assumed): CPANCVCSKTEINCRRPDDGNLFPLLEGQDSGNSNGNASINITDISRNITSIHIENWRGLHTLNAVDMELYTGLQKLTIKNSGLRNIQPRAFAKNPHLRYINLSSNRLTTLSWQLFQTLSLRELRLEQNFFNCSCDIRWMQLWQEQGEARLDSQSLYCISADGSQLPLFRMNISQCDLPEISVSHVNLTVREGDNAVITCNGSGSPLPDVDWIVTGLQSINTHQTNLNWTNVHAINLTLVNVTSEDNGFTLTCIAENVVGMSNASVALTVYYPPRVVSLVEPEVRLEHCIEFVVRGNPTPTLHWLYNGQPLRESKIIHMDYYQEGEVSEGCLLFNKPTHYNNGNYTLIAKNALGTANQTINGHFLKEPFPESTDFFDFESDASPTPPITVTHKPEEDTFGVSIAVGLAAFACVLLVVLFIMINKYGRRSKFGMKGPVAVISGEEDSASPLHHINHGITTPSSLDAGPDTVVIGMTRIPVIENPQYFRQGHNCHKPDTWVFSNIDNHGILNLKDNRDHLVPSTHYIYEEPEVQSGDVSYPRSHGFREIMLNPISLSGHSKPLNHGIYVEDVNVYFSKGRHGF
T1 sequence (Q03351 32-612 isoform Q03351-5 limits assumed): as above

COc1cccc(-c2cc(=O)c3ccccc3o2)c1N [PD98059]
ONL thickness vs vehicle-injected eye ([1]; RHOP mice, post-natal day 22 (did not reach significant values)): slightly bigger | ONL thickness vs vehicle-injected eye ([1]; RHOP mice, post-natal day 24): clear protective effect; also recorded: bigger | ONL thickness vs vehicle-injected eye ([1]; RHOP mice, post-natal day 28): still larger; also recorded: bigger | ONL thickness vs vehicle-injected eye ([1]; WT mice): No changes | block of p-Erk in Müller cells [2]: 030% | p-Erk signal (immunoreactivity) in Müller cells [2]: abolished; also recorded: reduced

neurotrophin-3 [NT-3]
TNF-α mRNA and protein [3]: increases; also recorded: induce | increase in p-Erk levels [4]: ~2 fold | increase in p-Akt levels [5]: ~1.5 | increase in p-Erk [5]: ~2.5 fold | levels of p-Akt [6]: did not change

B1: neurotrophin-3 (NT-3) (ligand, UniProt P20783 139-257, looked up)
chain: YAEHKSHRGEYSVCDSESLWVTDKSSAIDIRGHQVTVLGEIKTGNSPVKQYFYETRCKEARPVKNGCRGIDDKHWNSQCKTSQTYVRALTSENNKLVGWRWIRIDTSCVCALSRKIGRT
p-Akt level (Western blot densitometry) after 4 nM NT-3 for 10 min [7]: 1.5 fold | p-Erk level (Western blot densitometry) after 4 nM NT-3 for 10 min [7]: 2.5 fold | p-Erk level (Western blot densitometry) after 4 nM NT-3 for 10 min, non-infected 293-TrkC.T1 cells [8]: 2 fold
